Experimental data as given in article PMC7083851, “Extended pharmacodynamic responses observed upon PROTAC-mediated degradation of RIPK2” (Communications Biology, 2020).
Values joined by “and” are separate entries in the source; they are usually repeats but may differ in a detail not shown here. Equal entries are not always repeated.

Experiments:
RIPK2 [1] = biological target: T1, RIPK2 (Rattus norvegicus, UniProt G3V783); test: RIPK2 levels in colon of dosed rats (Western blot); format: in vivo; conditions: for RIPK2 level in colon (fig 5f): vehicle control 0.0136-0.0240
T1 construct: from tissue; host or cells: terminal colon samples of dosed rats
T1 sequence (G3V783 1-539): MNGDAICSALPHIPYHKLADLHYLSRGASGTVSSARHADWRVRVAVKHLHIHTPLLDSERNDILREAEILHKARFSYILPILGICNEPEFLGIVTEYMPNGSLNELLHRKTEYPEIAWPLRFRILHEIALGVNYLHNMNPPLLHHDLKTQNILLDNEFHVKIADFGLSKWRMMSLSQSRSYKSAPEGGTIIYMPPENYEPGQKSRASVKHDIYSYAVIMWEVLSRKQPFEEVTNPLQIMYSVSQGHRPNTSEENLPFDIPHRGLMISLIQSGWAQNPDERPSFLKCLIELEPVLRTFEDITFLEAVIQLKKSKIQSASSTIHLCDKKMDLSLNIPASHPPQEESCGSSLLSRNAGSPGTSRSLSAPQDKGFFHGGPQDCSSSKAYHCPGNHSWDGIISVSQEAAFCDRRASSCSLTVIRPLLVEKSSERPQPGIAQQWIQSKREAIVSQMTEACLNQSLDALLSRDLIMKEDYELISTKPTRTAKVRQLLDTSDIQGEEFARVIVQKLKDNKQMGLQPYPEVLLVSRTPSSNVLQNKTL
Protocol: Rat PK/PD studies: On arrival, all rats were housed in a plastic solid bottom cage in groups of 2–3 with access to food and water ad libitum and under a 12 h light–dark cycle. Male CD or Wistar Han rats (7–9 weeks old, Charles River UK Ltd.) were randomly allocated to treatment groups upon arrival. Female CD rats (7–8 weeks old on arrival, Charles River Ltd.) were placed into groups using a randomization schedule based on body weight prior to the study start. All animals were acclimatized for a minimum of one week prior to the experiment commencing.
Ex vivo stimulation of rat blood with L18-MDP for PD: PPD blood samples taken prior to PROTAC administration or at fixed timepoints post PROTAC administration through the course of the study, were treated ex vivo with 100 ng/mL L18-MDP (Invivogen) or vehicle (0.1% DMSO) and incubated for 4 h. Following centrifugation, plasma was collected for cytokines analysis as detailed in cytokines assay section. Additionally, RIPK2 levels were determined in PBMCs isolated from blood and where collected, in sampled colon tissue as described in the text.
(§1) For in vivo studies, RIPK2:tubulin ratios and cytokine levels from each individual experiment were analysed either using a One-way ANOVA with Dunnet’s post-test or a two way ANOVA using GraphPad Prism 5.0.4 to determine statistical significance with 95% confidence levels.

XIAP = biological target: T2, XIAP (Homo sapiens, UniProt P98170); test: XIAP levels in human PBMCs, 24 h, capillary immunoassay; format: cell-based; conditions: up to 1uM
T2 construct: endogenous in cells; host or cells: primary human PBMCs
T2 sequence (P98170 whole entry): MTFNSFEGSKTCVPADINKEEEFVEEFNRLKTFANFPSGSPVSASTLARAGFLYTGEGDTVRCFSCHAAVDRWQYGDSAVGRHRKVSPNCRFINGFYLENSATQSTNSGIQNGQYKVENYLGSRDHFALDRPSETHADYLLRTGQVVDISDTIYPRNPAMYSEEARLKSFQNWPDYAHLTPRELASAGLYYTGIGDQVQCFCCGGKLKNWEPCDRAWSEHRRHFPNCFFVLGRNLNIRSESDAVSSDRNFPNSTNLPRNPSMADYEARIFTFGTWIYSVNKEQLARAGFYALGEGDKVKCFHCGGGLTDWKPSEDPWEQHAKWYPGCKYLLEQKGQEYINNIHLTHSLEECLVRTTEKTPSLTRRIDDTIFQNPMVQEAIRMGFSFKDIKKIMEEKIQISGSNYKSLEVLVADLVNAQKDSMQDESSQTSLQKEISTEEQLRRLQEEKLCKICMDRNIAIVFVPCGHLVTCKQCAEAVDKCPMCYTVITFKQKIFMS
Protocol: Where the assessment of cytokines was performed, L18-MDP was added to the cell culture media (1 μg/ml) or to the rat blood samples (100 ng/ml) and samples were incubated for up to 4 h. For human blood, 250 ng/ml MDP (Invivogen) was added following compound treatment and the samples were further incubated for 5 h. Samples were them spun down at 1000 g and the cell culture supernatant, plasma or serum were collected for cytokines assessment, while cell pellets were used for RIPK2 and/or cIAP1, cIAP2, and XIAP levels analysis via immunoblotting.
Simple Western immunoassay: Cell lysates were mixed with 5× concentrated master mix (Protein Simple) and denatured at 95 °C on a heat block for 5 min together with the provided ladder (Protein Simple). Antibodies were diluted in the provided buffer as following: anti-RIPK2 (1:10 or 1:50), anti-cIAP1(1:10), anti-cIAP2 (1:10), anti-XIAP (1:10), mouse anti-β-actin (Abcam - 1:1000), rabbit anti-β-actin (Abcam - 1:50) and anti-vinculin (1:100). […] All samples were analyzed using the associated Compass software 3.1.7. […]
Cell viability was assessed by using Cell Titer
Kit (Promega) according to the manufacturer’s instructions. Samples were analysed using […]

[2] = tested on: L18-MDP-induced cytokine release; test: In vivo L18-MDP acute inflammation model, spleen cytokines; design: species or system rat; cytokine level (fig 6d) / cytokine level (fig 6e) / cytokine level (fig 6f): unit not given here; conditions: for cytokine level (fig 6e) / cytokine level (fig 6f) / cytokine level (fig 6d): spleen, individual rats, beside L18-MDP control
Protocol: In vivo L18-MDP administration to rodents results in an acute inflammatory response characterised by the rapid production of inflammatory cytokines. […]. […]. Blood concentrations of 6 and 7 tracked closely and dropped below the LLQ after 24 h.
. Cytokine levels were determined in serum generated from the terminal blood samples and in tissue lysates as detailed below.
Cytokine measurement assay: Cytokine levels were measured in rat plasma or rat PBMCs cell culture supernatants using rat V-Plex TNFα, in human plasma or human PBMCs cell culture supernatants with either TNFα tissue culture or 7-plex kit. Rat serum and tissues samples from the in vivo L18-MDP acute inflammation model were analyzed using the rat TNFα, Il-6 and IL-8 U-Plex kits. All kits provided by Meso Scale Discovery (MSD). Levels of cytokines spontaneously released from human colon biopsies cell culture supernatants were measured using Human IL-1 beta/IL-1F2 DuoSet ELISA (Bio-techne), Human IL-6 ELISA (Immunotools) and Human TNF-alpha DuoSet ELISA (Bio-techne). All samples were processed accordingly to the manufacturer’s instructions. The MSD plates were analyzed using the MSD sector imager 6000 plate reader and cytokines concentration (pg/ml) was obtained by using the MSD DISCOVERY WORKBENCH software version 4.0.12.1
as §1

[3] = High-throughput precipitation solubility, chemiluminescent nitrogen-specific detection (CLND); format: physicochemical; conditions: high-throughput
Hepatocyte CLint, human = format: in vitro ADME; conditions: human liver hepatocytes
Protocol: Metabolic stability was performed at Cyprotex (UK). Pooled liver microsomes / cryopreserved pooled hepatocytes were purchased from a commercial supplier (BD Biosciences or Corning/InVitro Technologies).
The final incubation volume was 500 µL. An appropriate vehicle control was used. Each compound was incubated for 0, 5, 10, 20, 40, and 60 min. The control (vehicle) was incubated for 60 min.
All incubations were terminated by transferring 50 μL of incubate to 100 μL of acetonitrile containing internal standard at the appropriate time points. The termination plates were centrifuged at 2500 rpm for 20–30min at 4 °C to precipitate the protein. Following protein precipitation, samples were analysed using quantitative LC-MS/MS.

RIPK2 [4] = biological target: RIPK2 (Homo sapiens, UniProt O43353); test: RIPK2 fluorescence polarisation binding assay
RIPK2 (Homo sapiens, UniProt O43353), sequence (O43353 whole entry): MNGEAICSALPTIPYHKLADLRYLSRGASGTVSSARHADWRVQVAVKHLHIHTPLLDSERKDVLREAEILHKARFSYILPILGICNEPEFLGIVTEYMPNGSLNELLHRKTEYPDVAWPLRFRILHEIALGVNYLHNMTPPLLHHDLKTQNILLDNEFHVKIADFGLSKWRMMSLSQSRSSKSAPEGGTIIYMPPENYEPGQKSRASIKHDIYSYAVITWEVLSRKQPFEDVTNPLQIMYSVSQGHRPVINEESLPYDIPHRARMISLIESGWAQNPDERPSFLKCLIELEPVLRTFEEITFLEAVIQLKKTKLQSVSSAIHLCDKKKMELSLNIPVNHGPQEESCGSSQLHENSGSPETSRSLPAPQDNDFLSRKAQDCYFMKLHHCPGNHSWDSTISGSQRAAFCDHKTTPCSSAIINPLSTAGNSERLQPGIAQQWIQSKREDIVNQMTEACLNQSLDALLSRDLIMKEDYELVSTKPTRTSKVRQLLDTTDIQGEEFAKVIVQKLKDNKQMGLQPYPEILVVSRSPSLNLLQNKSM

Structure (SMILES): CN[C@@H](C)C(=O)N[C@H](C(=O)N1C[C@@H](NC(=O)c2cnc(N3CCN(CCCOc4cc5ncnc(Nc6n[nH]c(C)c6C)c5cc4S(=O)(=O)C(C)(C)C)CC3)cn2)C[C@H]1C(=O)Nc1c(F)cccc1F)C(C)(C)C [PROTAC 6]
- RIPK2 level in colon (fig 5f) (RIPK2 [1]; 0.05 mg/kg, individual rats 1-4): 0.0091 and 0.0088 and 0.0071 and 0.0105
- RIPK2 level in colon (fig 5f) (RIPK2 [1]; 0.5 mg/kg, individual rats 5-8): 0.0034 and 0.0025 and 0.0038 and 0.0043
- RIPK2 in terminal colon samples, in words (RIPK2 [1]; rat, 0.05 and 0.5 mg/kg QD SC, Western blot): significant degradation of RIPK2
- change in XIAP protein levels, in words (XIAP): no change in protein levels
- inhibition of TNFα and IL-8 in spleen, in words ([2]; rat, 0.3 mg/kg SC, intravenous L18-MDP challenge): short-lived and returned to basal levels by the third day post-dose
- cytokine level (fig 6e) ([2]; time 6 h): 14.13 and 34.14 and 14.02 and 19.73 and 14.97
- cytokine level (fig 6f) ([2]; time 6 h): 4.45 and 4.35 and 4.34 and 3.21 and 3.53
- cytokine level (fig 6d) ([2]; time 6 h): 2.77 (2×) and 3.58 and 3.26 and 3.28
- cytokine level (fig 6e) ([2]; time 24 h): 45.7 and 38.46 and 58.3 and 40.91 and 52.98
- cytokine level (fig 6f) ([2]; time 24 h): 4.32 and 2.78 and 5.01 and 2.54 and 9.72
- cytokine level (fig 6d) ([2]; time 24 h): 4.43 and 2.62 and 4.18 and 4.64 and 5.01
- cytokine level (fig 6e) ([2]; time 72 h): 111.22 and 59.85 and 73.1 and 99 and 52.1
- cytokine level (fig 6f) ([2]; time 72 h): 75.27 and 51.34 and 57.62 and 94.65 and 61.7
- cytokine level (fig 6d) ([2]; time 72 h): 45 and 42.87 and 29.6 and 47.75 and 33.69
- cytokine level (fig 6e) ([2]; time 240 h): 97.65 and 76.46 and 96.01 and 80.21 and 59.48
- cytokine level (fig 6f) ([2]; time 240 h): 72.27 and 99.15 and 93.27 and 64.45 and 48.45
- cytokine level (fig 6d) ([2]; time 240 h): 65.15 and 73.34 and 58.46 and 1.72 and 47.46
- cytokine level (fig 6e) ([2]; time 408 h): 146.67 and 133.23 and 180.63 and 211.01 and 68.17
- cytokine level (fig 6f) ([2]; time 408 h): 79.92 and 69.55 and 103.81 and 98.05 and 47.92
- cytokine level (fig 6d) ([2]; time 408 h): 41.62 and 64.64 and 76.25 and 77.33 and 37.06

Structure (SMILES): CN[C@@H](C)C(=O)N[C@H](C(=O)N1CCC[C@H]1c1nc(C(=O)c2ccc(F)cc2)cs1)C1CCN(C(=O)c2cnc(N3CCN(CCOc4cc5ncnc(Nc6n[nH]c(C)c6C)c5cc4S(=O)(=O)C(C)(C)C)CC3)nc2)CC1 [PROTAC 4]
- solubility [3]: > 311 µM
- clearance in hepatocytes (Hepatocyte CLint, human): < 0.45 mL/min/g liver
- RIPK2 FP pIC50 ± SEM (n) (RIPK2 [4]): 6.6 ± 0.02 (8)
